Assay results taken from US9833497B2, “Human originated EGF domain proteins and use of the same” (CHENGDU SOURCEBIO LIMITED-LIABILITY COMPANY, priority 2013, dated 2017).

How the values were obtained:
Type in all cases: cell-based
E. coli BL21 = assay: MIC against Gram-negative bacteria: E. coli BL21
Method in brief: (§1)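 Bacteria grown in LB at 37° C with shaking to McFarland 0.5, pelleted and resuspended in fresh LB, then seeded at 5×10^5 CFU/mL per well. Purified recombinant human EGF domain proteins were two-fold serially diluted in triplicate and plates shaken at 37° C, 175 rpm. MIC is the lowest protein concentration with no bacterial growth.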

Aeromonas hydrophila = assay: MIC against Gram-negative bacteria: Aeromonas hydrophila; settings: for MIC / MIC (μg/mL) A. hydrophila: A. hydrophila
Method in brief: as §1

Serratia marcescens = assay: MIC against Gram-negative bacteria: Serratia marcescens; settings: for MIC / MIC (μg/mL) S. marcescens: S. marcescens
Method in brief: as §1

Moraxella catarrhalis = assay: MIC against Gram-negative bacteria: Moraxella catarrhalis; settings: for MIC / MIC (μg/mL) M. catarrhalis: M. catarrhalis
Method in brief: as §1

Klebsiella pneumonia = assay: MIC against Gram-negative bacteria: Klebsiella pneumonia; settings: for MIC / MIC (μg/mL) K. pneumonia: K. pneumonia
Method in brief: as §1

Pseudomonas aeruginosa = assay: MIC against Gram-negative bacteria: Pseudomonas aeruginosa; settings: for MIC / MIC (μg/mL) P. aeruginosa: P. aeruginosa
Method in brief: as §1

Enterobacter cloacae = assay: MIC against Gram-negative bacteria: Enterobacter cloacae; settings: for MIC / MIC (μg/mL) E. cloacae: E. cloacae
Method in brief: as §1

Citrobacter diversus = assay: MIC against Gram-negative bacteria: Citrobacter diversus; settings: for MIC / MIC (μg/mL) C. diversus: C. diversus
Method in brief: as §1

E. coli DH5α = assay: Antibacterial activity: MIC and growth curve against E. coli DH5α in 96-well plate; settings: minimal inhibitory concentration against E. coli DH5α; 96-well plate, 5×10^5 CFU/mL, 37° C., judged after 8 h
Method in brief: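 Log-phase DH5α (OD600 about 0.5, 37° C, 185 rpm in LB) was pelleted, resuspended in fresh LB and seeded at 5×10^5 CFU/mL with recombinant protein at 50, 25 and 12.5 μg/mL (two-fold series), in triplicate. Plates were shaken at 175 rpm, 37° C, and OD600 was read every 30 min. MIC was the lowest concentration with no growth.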

Proteus vulgaris = assay: MIC against Gram-negative bacteria: Proteus vulgaris; settings: for MIC / MIC (μg/mL) P. vulgaris: P. vulgaris
Method in brief: as §1

Proteus mirabilis = assay: MIC against Gram-negative bacteria: Proteus mirabilis; settings: for MIC / MIC (μg/mL) P. mirabilis: P. mirabilis
Method in brief: as §1

[1] = 96-well plate, 5×10^5 CFU/mL, 37° C., 10 h
[2] = E. coli BL21, 10 h cultivation at 37° C.
[3] = E. coli BL21, 10 h cultivation at 37° C., 5×10^5 CFU/mL
[4] = 10 h cultivation at 37° C., 5×10^5 CFU/mL
[5] = E. coli BL21, 5×10^5 CFU/mL, 10 h cultivation at 37° C.
[6] = Aeromonas hydrophila, 5×10^5 CFU/mL, 10 h cultivation at 37° C.
[7] = Serratia marcescens, 5×10^5 CFU/mL, 10 h cultivation at 37° C.
[8] = Moraxella catarrhalis, 5×10^5 CFU/mL, 10 h cultivation at 37° C.
[9] = Klebsiella pneumonia, 5×10^5 CFU/mL, 10 h cultivation at 37° C.
[10] = Pseudomonas aeruginosa, 5×10^5 CFU/mL, 10 h cultivation at 37° C.
[11] = Enterobacter cloacae, 5×10^5 CFU/mL, 10 h cultivation at 37° C.
[12] = Citrobacter diversus, 5×10^5 CFU/mL, 10 h cultivation at 37° C.
[13] = Proteus vulgaris, 5×10^5 CFU/mL, 10 h cultivation at 37° C.
[14] = Proteus mirabilis, 5×10^5 CFU/mL, 10 h cultivation at 37° C.

PRT467 (ECPGGCRNGGFCNERRICECPDGFHGPHCE; listed as Homo sapiens)
MIC against E. coli BL21 (E. coli BL21; [1]): 12.5 µg/mL | MIC against A. hydrophila (Aeromonas hydrophila; [1]): 25 µg/mL | MIC against S. marcescens (Serratia marcescens; [1]): 50 µg/mL | MIC against M. catarrhalis (Moraxella catarrhalis; [1]): 25 µg/mL | MIC against K. pneumonia (Klebsiella pneumonia; [1]): 25 µg/mL | MIC against P. aeruginosa (Pseudomonas aeruginosa; [1]): 12.5 µg/mL | MIC against E. cloacae (Enterobacter cloacae; [1]): 12.5 µg/mL | MIC against C. diversus (Citrobacter diversus; [1]): 50 µg/mL | MIC (E. coli DH5α): 12.5 µg/mL | MIC against P. vulgaris (Proteus vulgaris; [1]): 25 µg/mL | MIC against P. mirabilis (Proteus mirabilis; [1]): 12.5 µg/mL

PRT971 (DINDCDPNPCLNGGSCQDGVGSFSCSCLPGFAGPRCA; listed as Homo sapiens)
MIC (E. coli BL21; [2]): 12.5 µg/mL | MIC (Aeromonas hydrophila; 10 h cultivation at 37° C.): 50 µg/mL | MIC (Serratia marcescens; 10 h cultivation at 37° C.): 25 µg/mL | MIC (Moraxella catarrhalis; 10 h cultivation at 37° C.): 25 µg/mL | MIC (Klebsiella pneumonia; 10 h cultivation at 37° C.): 100 µg/mL | MIC (Pseudomonas aeruginosa; 10 h cultivation at 37° C.): 50 µg/mL | MIC (Enterobacter cloacae; 10 h cultivation at 37° C.): 25 µg/mL | MIC (Citrobacter diversus; 10 h cultivation at 37° C.): 12.5 µg/mL | MIC (E. coli DH5α): 50 µg/mL | MIC (Proteus vulgaris; 10 h cultivation at 37° C.): 12.5 µg/mL | MIC (Proteus mirabilis; 10 h cultivation at 37° C.): 50 µg/mL

PRT846 (CNCSVVGSLNVNRCNQTTGQCECRPGYQGLHCETCKEGFYLNYTSGLCQP; listed as Homo sapiens)
MIC (μg/mL) E. coli BL21 (E. coli BL21; [3]): 12.5 µg/mL | MIC (μg/mL) A. hydrophila (Aeromonas hydrophila; [4]): 12.5 µg/mL | MIC (μg/mL) S. marcescens (Serratia marcescens; [4]): 12.5 µg/mL | MIC (μg/mL) M. catarrhalis (Moraxella catarrhalis; [4]): 12.5 µg/mL | MIC (μg/mL) K. pneumonia (Klebsiella pneumonia; [4]): 50 µg/mL | MIC (μg/mL) P. aeruginosa (Pseudomonas aeruginosa; [4]): 25 µg/mL | MIC (μg/mL) E. cloacae (Enterobacter cloacae; [4]): 12.5 µg/mL | MIC (μg/mL) C. diversus (Citrobacter diversus; [4]): 12.5 µg/mL | MIC (E. coli DH5α): 25 µg/mL | MIC (μg/mL) P. vulgaris (Proteus vulgaris; [4]): 12.5 µg/mL | MIC (μg/mL) P. mirabilis (Proteus mirabilis; [4]): 12.5 µg/mL

PRT440 (DVNECRQNVCRPDQHCKNTRGGYKCIDLCPNGMTKAENGTCI; listed as Homo sapiens)
MIC (E. coli BL21; [3]): 12.5 µg/mL | MIC (Aeromonas hydrophila; [4]): 12.5 µg/mL | MIC (Serratia marcescens; [4]): 25 µg/mL | MIC (Moraxella catarrhalis; [4]): 12.5 µg/mL | MIC (Klebsiella pneumonia; [4]): 12.5 µg/mL | MIC (Pseudomonas aeruginosa; [4]): 50 µg/mL | MIC (Enterobacter cloacae; [4]): 50 µg/mL | MIC (Citrobacter diversus; [4]): 50 µg/mL | MIC (E. coli DH5α): 50 µg/mL | MIC (Proteus vulgaris; [4]): 50 µg/mL | MIC (Proteus mirabilis; [4]): 25 µg/mL

PRT865 (CSCHPVGSAVLPANSVTFCDPSNGDCPCKPGVAGRRCDRCMVGYWGFGDYGCRP; listed as Homo sapiens)
MIC (μg/mL) E. coli BL21 (E. coli BL21; [3]): 12.5 µg/mL | MIC (μg/mL) A. hydrophila (Aeromonas hydrophila; [4]): 50 µg/mL | MIC (μg/mL) S. marcescens (Serratia marcescens; [4]): 12.5 µg/mL | MIC (μg/mL) M. catarrhalis (Moraxella catarrhalis; [4]): 50 µg/mL | MIC (μg/mL) K. pneumonia (Klebsiella pneumonia; [4]): 50 µg/mL | MIC (μg/mL) P. aeruginosa (Pseudomonas aeruginosa; [4]): 25 µg/mL | MIC (μg/mL) E. cloacae (Enterobacter cloacae; [4]): 12.5 µg/mL | MIC (μg/mL) C. diversus (Citrobacter diversus; [4]): 12.5 µg/mL | MIC (E. coli DH5α): 25 µg/mL | MIC (μg/mL) P. vulgaris (Proteus vulgaris; [4]): 12.5 µg/mL | MIC (μg/mL) P. mirabilis (Proteus mirabilis; [4]): 25 µg/mL

PRT576 (CTCNLLGTNPQQCPSPDQCHCDPSSGQCPCLPNVQGPSCDRCAPNFWNLTSGHGCQP; listed as Homo sapiens)
MIC against E. coli BL21 (E. coli BL21; [1]): 12.5 µg/mL | MIC against A. hydrophila (Aeromonas hydrophila; [1]): 12.5 µg/mL | MIC against S. marcescens (Serratia marcescens; [1]): 25 µg/mL | MIC against M. catarrhalis (Moraxella catarrhalis; [1]): 50 µg/mL | MIC against K. pneumonia (Klebsiella pneumonia; [1]): 12.5 µg/mL | MIC against P. aeruginosa (Pseudomonas aeruginosa; [1]): 12.5 µg/mL | MIC against E. cloacae (Enterobacter cloacae; [1]): 12.5 µg/mL | MIC against C. diversus (Citrobacter diversus; [1]): 12.5 µg/mL | MIC (E. coli DH5α): 12.5 µg/mL | MIC against P. vulgaris (Proteus vulgaris; [1]): 50 µg/mL | MIC against P. mirabilis (Proteus mirabilis; [1]): 12.5 µg/mL

PRT790 (HGPQCEQRCPCQNGGVCHHVTGECSCPSGWMGTVCG; listed as Homo sapiens)
MIC (μg/mL) E. coli BL21 (E. coli BL21; [3]): 50 µg/mL | MIC (μg/mL) A. hydrophila (Aeromonas hydrophila; [4]): 25 µg/mL | MIC (μg/mL) S. marcescens (Serratia marcescens; [4]): 12.5 µg/mL | MIC (μg/mL) M. catarrhalis (Moraxella catarrhalis; [4]): 25 µg/mL | MIC (μg/mL) K. pneumonia (Klebsiella pneumonia; [4]): 25 µg/mL | MIC (μg/mL) P. aeruginosa (Pseudomonas aeruginosa; [4]): 25 µg/mL | MIC (μg/mL) E. cloacae (Enterobacter cloacae; [4]): 12.5 µg/mL | MIC (μg/mL) C. diversus (Citrobacter diversus; [4]): 50 µg/mL | MIC (E. coli DH5α): 25 µg/mL | MIC (μg/mL) P. vulgaris (Proteus vulgaris; [4]): 50 µg/mL | MIC (μg/mL) P. mirabilis (Proteus mirabilis; [4]): 12.5 µg/mL

PRT439 (DINECQESSPCHQRCFNAIGSFHCGCEPGYQLKGRKCM; listed as Homo sapiens)
MIC (E. coli BL21; [3]): 12.5 µg/mL | MIC (Aeromonas hydrophila; [4]): 12.5 µg/mL | MIC (Serratia marcescens; [4]): 12.5 µg/mL | MIC (Moraxella catarrhalis; [4]): 50 µg/mL | MIC (Klebsiella pneumonia; [4]): 50 µg/mL | MIC (Pseudomonas aeruginosa; [4]): 25 µg/mL | MIC (Enterobacter cloacae; [4]): 25 µg/mL | MIC (Citrobacter diversus; [4]): 25 µg/mL | MIC (E. coli DH5α): 25 µg/mL | MIC (Proteus vulgaris; [4]): 50 µg/mL | MIC (Proteus mirabilis; [4]): 12.5 µg/mL

PRT990 (LDDACVSNPCHEDAICDTNPVNGRAICTCPPGFTGGACD; listed as Homo sapiens)
MIC (E. coli BL21; [2]): 25 µg/mL | MIC (Aeromonas hydrophila; 10 h cultivation at 37° C.): 12.5 µg/mL | MIC (Serratia marcescens; 10 h cultivation at 37° C.): 25 µg/mL | MIC (Moraxella catarrhalis; 10 h cultivation at 37° C.): 50 µg/mL | MIC (Klebsiella pneumonia; 10 h cultivation at 37° C.): 12.5 µg/mL | MIC (Pseudomonas aeruginosa; 10 h cultivation at 37° C.): 12.5 µg/mL | MIC (Enterobacter cloacae; 10 h cultivation at 37° C.): 50 µg/mL | MIC (Citrobacter diversus; 10 h cultivation at 37° C.): 25 µg/mL | MIC (E. coli DH5α): 12.5 µg/mL | MIC (Proteus vulgaris; 10 h cultivation at 37° C.): 12.5 µg/mL | MIC (Proteus mirabilis; 10 h cultivation at 37° C.): 25 µg/mL

PRT1436 (AERNCRNPELNPCSVNAQCIEERQGDVTCVCGVGWAGDGYICG; listed as Homo sapiens)
MIC against E. coli BL21 (E. coli BL21; [5]): 12.5 µg/mL | MIC against A. hydrophila (Aeromonas hydrophila; [6]): 50 µg/mL | MIC against S. marcescens (Serratia marcescens; [7]): 12.5 µg/mL | MIC against M. catarrhalis (Moraxella catarrhalis; [8]): 25 µg/mL | MIC against K. pneumonia (Klebsiella pneumonia; [9]): 50 µg/mL | MIC against P. aeruginosa (Pseudomonas aeruginosa; [10]): 12.5 µg/mL | MIC against E. cloacae (Enterobacter cloacae; [11]): 12.5 µg/mL | MIC against C. diversus (Citrobacter diversus; [12]): 25 µg/mL | MIC (E. coli DH5α): 12.5 µg/mL | MIC against P. vulgaris (Proteus vulgaris; [13]): 25 µg/mL | MIC against P. mirabilis (Proteus mirabilis; [14]): 12.5 µg/mL

PRT1417 (RACHPRCAEHGTCRDGKCECSPGWNGEHCT; listed as Homo sapiens)
MIC against E. coli BL21 (E. coli BL21; [5]): 12.5 µg/mL | MIC against A. hydrophila (Aeromonas hydrophila; [6]): 50 µg/mL | MIC against S. marcescens (Serratia marcescens; [7]): 25 µg/mL | MIC against M. catarrhalis (Moraxella catarrhalis; [8]): 12.5 µg/mL | MIC against K. pneumonia (Klebsiella pneumonia; [9]): 50 µg/mL | MIC against P. aeruginosa (Pseudomonas aeruginosa; [10]): 12.5 µg/mL | MIC against E. cloacae (Enterobacter cloacae; [11]): 12.5 µg/mL | MIC against C. diversus (Citrobacter diversus; [12]): 25 µg/mL | MIC (E. coli DH5α): 25 µg/mL | MIC against P. vulgaris (Proteus vulgaris; [13]): 50 µg/mL | MIC against P. mirabilis (Proteus mirabilis; [14]): 25 µg/mL
